Data as given in ChEMBL document CHEMBL1201862, “PubChem BioAssay data set” (2004).
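How tested: cells in 96-well plates exposed to compound for 48 hours at five concentrations. GI50 is the concentration that inhibits growth by half.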 The source made the active and inactive calls. No stated cut-off is given here; in the data, active = GI50 up to about 1.1 µM and inactive = higher.

Legend:
Experiment in all cases: NCI anticancer screen, dose series, 48 h
CCRF-CEM = test system: CCRF-CEM
SK-MEL-2 = test system: SK-MEL-2
DU-145 = test system: DU-145
EKVX = test system: EKVX
OVCAR-3 = test system: OVCAR-3
SN12C = test system: SN12C
UACC-62 = test system: UACC-62
SR = test system: SR
OVCAR-4 = test system: OVCAR-4
SF-295 = test system: SF-295
MOLT-4 = test system: MOLT-4
IGROV-1 = test system: IGROV-1
SK-MEL-5 = test system: SK-MEL-5
M14 = test system: M14
Malme-3M = test system: Malme-3M
HT-29 = test system: HT-29
UO-31 = test system: UO-31
T47D = test system: T47D
A498 = test system: A498
KM12 = test system: KM12

Structure (SMILES)	GI50 (CCRF-CEM)	GI50 (SK-MEL-2)	GI50 (DU-145)	GI50 (EKVX)	GI50 (OVCAR-3)	GI50 (SN12C)	GI50 (UACC-62)	GI50 (SR)	GI50 (OVCAR-4)	GI50 (SF-295)	GI50 (MOLT-4)	GI50 (IGROV-1)	GI50 (SK-MEL-5)	GI50 (M14)	GI50 (Malme-3M)	GI50 (HT-29)	GI50 (UO-31)	GI50 (T47D)	GI50 (A498)	GI50 (KM12)
N#Cc1[nH]c(=O)n(-c2ccc([N+](=O)[O-])cc2)c1N	> 10 µM (inactive)	> 10 µM (inactive)	> 10 µM (inactive)	> 10 µM (inactive)	> 10 µM (inactive)	> 10 µM (inactive)	> 10 µM (inactive)	> 10 µM (inactive)	> 10 µM (inactive)	> 10 µM (inactive)	> 10 µM (inactive)	> 10 µM (inactive)	> 10 µM (inactive)	> 10 µM (inactive)	> 10 µM (inactive)	> 10 µM (inactive)	> 10 µM (inactive)	> 10 µM (inactive)	> 10 µM (inactive)	
Cc1ccc2c(c1)NC(=O)CCSSCCC(=O)N2	> 100 µM (inactive)	> 100 µM (inactive)	> 100 µM (inactive)	> 100 µM (inactive)	> 100 µM (inactive)	> 100 µM (inactive)	> 100 µM (inactive)	> 100 µM (inactive)	> 100 µM (inactive)	> 100 µM (inactive)	> 100 µM (inactive)	> 100 µM (inactive)	> 100 µM (inactive)	> 100 µM (inactive)	> 100 µM (inactive)	> 100 µM (inactive)	> 100 µM (inactive)	> 100 µM (inactive)	> 100 µM (inactive)	> 100 µM (inactive)
O=C1/C(=C\c2ccccc2)C(NC2CCCCC2)c2ccccc21 (stereo not drawn)	0.124 µM (active)	2.24 µM (inactive)	1.53 µM (inactive)	3.3 µM (inactive)	1.24 µM (inactive)	1.55 µM (inactive)	2.38 µM (inactive)	0.206 µM (active)	1.79 µM (inactive)	18.8 µM (inactive)	0.817 µM (active)	2.99 µM (inactive)	2.37 µM (inactive)	1.54 µM (inactive)	1.46 µM (inactive)	1.42 µM (inactive)	1.1 µM (active)	1.73 µM (inactive)	18.6 µM (inactive)	4.44 µM (inactive)
C=CCc1ccccc1C1CC2(C(=O)OC)OC1C(C(=O)OC)=C2C(=O)OC (stereo not drawn)	> 10 µM (inactive)	> 10 µM (inactive)	> 10 µM (inactive)	> 10 µM (inactive)	> 10 µM (inactive)	> 10 µM (inactive)	> 10 µM (inactive)	> 10 µM (inactive)	> 10 µM (inactive)	> 10 µM (inactive)	> 10 µM (inactive)	> 10 µM (inactive)	> 10 µM (inactive)	> 10 µM (inactive)	> 10 µM (inactive)	> 10 µM (inactive)	> 10 µM (inactive)	> 10 µM (inactive)	> 10 µM (inactive)	> 10 µM (inactive)
COC(=O)c1c(O)ccc2c1c1c(n2CCc2ccccc2)C(=O)c2ccccc2C1=O	12.8 µM (inactive)	15.1 µM (inactive)	14.4 µM (inactive)	20.7 µM (inactive)	6.7 µM (inactive)	12 µM (inactive)		5.28 µM (inactive)	6.79 µM (inactive)	19.1 µM (inactive)	4.06 µM (inactive)	11.9 µM (inactive)	12.5 µM (inactive)	15.4 µM (inactive)	12.1 µM (inactive)	11.8 µM (inactive)	10.8 µM (inactive)	5.47 µM (inactive)	16.6 µM (inactive)	12.2 µM (inactive)
CCOC(=O)/C=C/C(Br)=C(Br)/C=C/C(=O)OCC	0.796 µM (active)	20.2 µM (inactive)	13.1 µM (inactive)	17.9 µM (inactive)	12.1 µM (inactive)	7.85 µM (inactive)	15.4 µM (inactive)	7.8 µM (inactive)	17.7 µM (inactive)	14.8 µM (inactive)	1.83 µM (inactive)	14.2 µM (inactive)	12.9 µM (inactive)	13.3 µM (inactive)	3.4 µM (inactive)	14.8 µM (inactive)	10.7 µM (inactive)	14.8 µM (inactive)	26.9 µM (inactive)	16.6 µM (inactive)
CCN(CC)CCNc1ccc2nc(C)n3c4ccc(OC)cc4c(=O)c1c23	0.126 µM (active)	12.4 µM (inactive)	1.29 µM (inactive)	1.69 µM (inactive)	3.14 µM (inactive)	0.546 µM (active)	4.9 µM (inactive)	0.165 µM (active)	1.41 µM (inactive)	0.641 µM (active)	0.0959 µM (active)	0.494 µM (active)	5.57 µM (inactive)	10.5 µM (inactive)	5.33 µM (inactive)	0.323 µM (active)	3.08 µM (inactive)	17.8 µM (inactive)	3.7 µM (inactive)	1.8 µM (inactive)
